# Literature values, collected in US4686282A, “Immunotherapeutic polypeptide agents which block immune complex binding to immunoglobulin Fc receptors” (Immunetech, Inc., priority 1983, dated 1987).
# Ends that are not written are not given here.
# Tests used:
# C1 = C1 (Homo sapiens, UniProt P02745+P02746+P02747); details: compared with intact monomeric IgG; Prystowsky et al. 1981, Lukas et al. 1981
# [1] = humans, injection by the subcutaneous route
# [2] = system: local cutaneous allergic reaction (Prausnitz-Kustner); details: Hamburger 1975
# [3] = target: T1, IgE Fc receptor of human basophils (Homo sapiens, UniProt P12319); details: Plummer et al. 1983
# T1 construct: host or cells: human basophils
# T1 sequence (P12319 26-257): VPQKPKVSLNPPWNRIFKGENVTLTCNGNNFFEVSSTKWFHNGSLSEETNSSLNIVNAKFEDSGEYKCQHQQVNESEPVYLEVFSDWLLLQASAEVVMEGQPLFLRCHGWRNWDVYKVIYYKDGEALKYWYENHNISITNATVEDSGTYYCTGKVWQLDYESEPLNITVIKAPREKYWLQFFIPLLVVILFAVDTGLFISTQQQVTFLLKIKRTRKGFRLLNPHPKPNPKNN
# T1 sequence (Q01362 1-244 partner): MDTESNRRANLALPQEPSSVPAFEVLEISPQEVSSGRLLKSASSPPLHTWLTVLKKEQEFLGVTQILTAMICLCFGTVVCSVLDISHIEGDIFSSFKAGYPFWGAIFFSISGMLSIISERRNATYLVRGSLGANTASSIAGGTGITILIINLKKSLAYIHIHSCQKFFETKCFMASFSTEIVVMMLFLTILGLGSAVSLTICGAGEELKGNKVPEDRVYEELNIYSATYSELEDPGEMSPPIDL
# T1 sequence (P30273 19-86 partner): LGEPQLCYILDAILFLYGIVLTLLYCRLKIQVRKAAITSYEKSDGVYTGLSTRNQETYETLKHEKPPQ
# [4] = system: human and rodent mast cells; details: Stanworth et al. 1979
# [5] = system: human monocyte IgG Fc receptors
# lymphocytes = details: Morgan, Huguli and Weigle 1982
# [6] = system: granulocytes, monocytes and macrophages; details: in vitro; literature
# Sequence of C1 (P02745 23-245): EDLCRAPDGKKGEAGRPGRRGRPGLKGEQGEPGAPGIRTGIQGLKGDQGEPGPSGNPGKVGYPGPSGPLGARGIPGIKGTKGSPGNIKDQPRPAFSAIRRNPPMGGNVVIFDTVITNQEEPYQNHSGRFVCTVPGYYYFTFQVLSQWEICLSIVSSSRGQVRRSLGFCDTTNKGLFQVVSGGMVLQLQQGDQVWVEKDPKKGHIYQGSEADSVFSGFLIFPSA
# Sequence of C1 (P02746 28-253): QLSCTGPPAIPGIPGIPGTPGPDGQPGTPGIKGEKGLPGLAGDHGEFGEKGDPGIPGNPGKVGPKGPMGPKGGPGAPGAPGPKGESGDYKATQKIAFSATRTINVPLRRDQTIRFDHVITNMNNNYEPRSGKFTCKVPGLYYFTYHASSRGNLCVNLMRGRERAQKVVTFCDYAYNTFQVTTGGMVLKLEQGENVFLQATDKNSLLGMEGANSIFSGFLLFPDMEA
# Sequence of C1 (P02747 29-245): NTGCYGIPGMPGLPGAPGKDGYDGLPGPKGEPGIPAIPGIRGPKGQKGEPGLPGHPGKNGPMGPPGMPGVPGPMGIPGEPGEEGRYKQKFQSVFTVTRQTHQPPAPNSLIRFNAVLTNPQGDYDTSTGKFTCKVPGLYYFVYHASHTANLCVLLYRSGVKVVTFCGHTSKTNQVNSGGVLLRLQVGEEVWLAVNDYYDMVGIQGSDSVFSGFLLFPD
# Sequence of C1 (P00736 18-705 partner): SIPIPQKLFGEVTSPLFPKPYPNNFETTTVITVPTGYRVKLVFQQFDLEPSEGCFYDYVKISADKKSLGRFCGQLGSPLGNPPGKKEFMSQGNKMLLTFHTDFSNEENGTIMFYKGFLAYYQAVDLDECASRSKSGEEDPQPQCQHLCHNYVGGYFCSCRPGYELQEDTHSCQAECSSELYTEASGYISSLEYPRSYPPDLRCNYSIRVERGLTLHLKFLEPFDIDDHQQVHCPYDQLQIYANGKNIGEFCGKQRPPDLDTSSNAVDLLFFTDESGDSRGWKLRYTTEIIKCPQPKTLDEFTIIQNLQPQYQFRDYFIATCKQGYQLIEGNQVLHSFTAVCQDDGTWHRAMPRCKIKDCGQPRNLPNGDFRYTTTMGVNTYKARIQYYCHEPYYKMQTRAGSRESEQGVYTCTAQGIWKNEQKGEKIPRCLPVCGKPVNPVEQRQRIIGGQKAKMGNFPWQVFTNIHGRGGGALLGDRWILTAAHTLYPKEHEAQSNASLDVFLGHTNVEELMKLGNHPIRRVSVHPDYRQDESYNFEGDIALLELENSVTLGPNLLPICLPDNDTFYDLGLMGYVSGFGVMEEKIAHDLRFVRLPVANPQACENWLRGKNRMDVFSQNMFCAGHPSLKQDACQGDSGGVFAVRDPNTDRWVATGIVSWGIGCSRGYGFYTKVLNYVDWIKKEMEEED
# Sequence of C1 (P09871 16-688 partner): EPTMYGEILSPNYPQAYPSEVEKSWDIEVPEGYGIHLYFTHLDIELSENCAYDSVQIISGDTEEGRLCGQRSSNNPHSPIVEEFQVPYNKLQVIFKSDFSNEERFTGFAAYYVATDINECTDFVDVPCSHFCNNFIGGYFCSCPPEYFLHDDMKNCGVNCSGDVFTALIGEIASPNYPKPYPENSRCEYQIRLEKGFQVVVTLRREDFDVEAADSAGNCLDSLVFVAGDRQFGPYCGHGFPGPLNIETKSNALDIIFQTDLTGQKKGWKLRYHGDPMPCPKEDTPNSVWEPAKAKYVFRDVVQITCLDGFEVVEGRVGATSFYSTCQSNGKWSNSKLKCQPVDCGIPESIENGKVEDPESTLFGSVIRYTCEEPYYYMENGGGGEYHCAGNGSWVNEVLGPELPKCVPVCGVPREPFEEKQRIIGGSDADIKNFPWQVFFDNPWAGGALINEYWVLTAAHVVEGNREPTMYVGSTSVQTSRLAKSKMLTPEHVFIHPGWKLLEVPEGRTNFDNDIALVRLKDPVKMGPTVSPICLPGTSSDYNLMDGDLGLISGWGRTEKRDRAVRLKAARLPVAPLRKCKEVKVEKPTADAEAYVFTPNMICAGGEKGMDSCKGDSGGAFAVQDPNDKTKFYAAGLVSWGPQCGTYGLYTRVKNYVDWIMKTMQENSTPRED
substance,measurement,setting,value
Ac-Phe-Asn-Trp-Tyr-Val (Ac-FNWYV),inhibitors of C1-mediated hemolysis,C1,less active
Asp-Ser-Asp-Pro-Arg (DSDPR; printed: Asp-Ser-Asp-Pro-Arg),inhibit systemic allergic disease,[1],inhibit systemic allergic disease
same,inhibit a local cutaneous allergic reaction (Prausnitz-Kustner),[2],approximately 90%
same,block human IgE binding to basophil IgE Fc receptors,[3],up to 70%
FNWYVDGVQVHNAKTK,inhibitors of C1-mediated hemolysis,C1,less active
GVQVHNAKTK,inhibitors of C1-mediated hemolysis,C1,approximately as active as inhibitors as intact monomeric IgG
PRKTKGSGFFVF,degranulation of human and rodent mast cells,[4],able to cause degranulation
QYDSTYR,block IgG binding to human monocyte IgG Fc receptors,[5]; Ratcliffe and Stanworth 1982,slightly block
TISKAKGQPREPQVYTLPSREEM,nonspecific activation of lymphocytes,lymphocytes,ability to nonspecifically activate lymphocytes
Thr-Lys-Pro-Arg (TKPR; printed: Thr-Lys-Pro-Arg) [Tuftsin],inhibitors of C1-mediated hemolysis,C1,less active
same,inhibits human IgG binding to human monocyte IgG Fc receptors,[5]; Ratcliffe and Stanworth 1982 and ourselves,competitively inhibits
same,phagocytosis stimulating ability,[6],active at nanomolar concentrations
Val-Gln-Val-His-Asn-Ala-Lys-Thr-Lys-Pro-Arg-OH (VQVHNAKTKPR-OH),inhibitors of C1-mediated hemolysis,C1,approximately as active as inhibitors as intact monomeric IgG
